Experimental data: ChEMBL document CHEMBL6096634, “Exploration of novel 20S proteasome activators featuring anthraquinone structures and their application in hypoxic cardiomyocyte protection” (Bioorg Med Chem, 2024)
Active and inactive are the calls of the source. The rule behind the calls is not given here.

Tests used:
[1] = target: T1, 20S proteasome (Homo sapiens) (UniProt P49721+P20618+P28074+P28062+P28065+P28072+P25786+P25787+P25788+P25789+P28066+P60900+O14818+Q8TAA3+P40306+A5LHX3+P49720+P28070+Q99436); assay: (§1) Activation of human erythrocyte-derived 20s proteosome using CT-L as peptide substrate by fluorescence based analysis; type: cell-based; conditions: for EC200: filed as activator
[2] = target: T1, 20S proteasome (Homo sapiens); assay: Activation of human erythrocyte-derived 20s proteosome using CT-L as peptide substrate at 10 uM by fluorescence based analysis relative to control; type: cell-based; conditions: filed as activator
20S proteasome = assay: as §1; type: cell-based
[3] = target: T1, 20S proteasome (Homo sapiens); assay: Activation of human erythrocyte-derived 20s proteosome using T-L as peptide substrate by fluorescence based analysis; type: cell-based; conditions: filed as activator
H9c2 [4] = assay: Upregulation of Ki-67 expression in rat H9c2 cells at 0.25 uM under hypoxic condition by qRT-PCR analysis; type: functional, cell-based
H9c2 [5] = assay: Upregulation of Ki-67 expression in rat H9c2 cells at 0.25 uM under normoxic condition by qRT-PCR analysis; type: functional, cell-based
H9c2 [6] = assay: Effect on PCNA expression in rat H9c2 cells at 0.25 uM under hypoxic condition by qRT-PCR analysis; type: functional, cell-based
H9c2 [7] = assay: Effect on PCNA expression in rat H9c2 cells at 0.25 uM under normoxic condition by qRT-PCR analysis; type: functional, cell-based
H9c2 [8] = assay: Protection against hypoxia-induced cell damage in rat H9c2 cells at 0.05 uM incubated for 14 hrs by MTT assay; type: functional, cell-based
HEK293 = assay: Inhibition of […]-induced ER stress in HEK293 cells harbouring XBP1-delta DBD-Luc cells assessed as decrease in luciferase activity incubated for 8 hrs by […]; type: functional, cell-based; conditions: Homo sapiens, dose 10-20 µM

| Structure (SMILES) | Activity [1] | Activity [2] [%] | EC50 (20S proteasome) [nM] | EC200 [1] [µM] | fold change (FC) [3] | Activity (H9c2 [4]) | Activity (H9c2 [5]) | Activity (H9c2 [6]) | Activity (H9c2 [7]) | Activity (H9c2 [8]) | inhibition (HEK293) |
| --- | --- | --- | --- | --- | --- | --- | --- | --- | --- | --- | --- |
| CN1CCN(c2ccc(NC(=O)c3cc(O)c4c(c3)C(=O)c3cccc(O)c3C4=O)cc2)CC1 | – | 549 | 6120 | 3.85 | 7.32 | – | – | – | – | – | – |
| Cc1cccc(Nc2cc(NCCC(C)C)c3noc4c3c2C(=O)c2ccccc2-4)c1 | – | 175 | 2090 | 0.19 | 2.08 | – | – | – | – | – | – |
| O=C1c2cccc(O)c2C(=O)c2c(O)cc(C(=O)N3CCC(c4ccccc4)CC3)cc21 | – | 233 | 2720 | 1.37 | 3.71 | – | – | – | – | – | – |
| O=C1c2ccccc2-c2onc3c(NCN4CCCCC4)cc(NCN4CCCCC4)c1c23 | inactive | 78.4 | – | – | – | – | – | – | – | – | – |
| Cc1cccc(Nc2cc(NCCN3CCOCC3)c3noc4c3c2C(=O)c2ccccc2-4)c1 | inactive | 47.9 | – | – | – | – | – | – | – | – | – |
| O=C1c2cccc(O)c2C(=O)c2c(O)cc(C(=O)N3CCN(c4nccs4)CC3)cc21 | – | 453 | 3570 | 1.18 | 4.07 | – | – | – | – | – | – |

The next lines start with results.

| Activity [1] | Activity [2] [%] | EC50 (20S proteasome) [nM] | EC200 [1] [µM] | fold change (FC) [3] | Structure (SMILES) | Activity (H9c2 [4]) | Activity (H9c2 [5]) | Activity (H9c2 [6]) | Activity (H9c2 [7]) | Activity (H9c2 [8]) | inhibition (HEK293) |
| --- | --- | --- | --- | --- | --- | --- | --- | --- | --- | --- | --- |
| inactive | 119 | – | – | – | Cc1cccc(Nc2cc(NCCO)c3noc4c3c2C(=O)c2ccccc2-4)c1 | – | – | – | – | – | – |
| – | 377 | 3680 | 0.66 | 5.38 | Cc1ccc(Nc2cc(NCC(C)C)c(N)c3c2C(=O)c2ccccc2C3=O)cc1 | Active | Active | inactive | inactive | Active | Active |
| – | 425 | 1330 | 0.12 | 5.83 | CC(C)CNc1cc(Nc2ccc(N3CCOCC3)cc2)c2c3c(onc13)-c1ccccc1C2=O | – | – | – | – | Active | Active |
| inactive | 148 | – | – | – | CN(CCc1ccccc1)C(=O)c1cc(O)c2c(c1)C(=O)c1cccc(O)c1C2=O | – | – | – | – | – | – |
| – | 567 | 2260 | 1.67 | 6.5 | Cc1cccc(NC(=O)c2cc(O)c3c(c2)C(=O)c2cccc(O)c2C3=O)c1 | – | – | – | – | – | – |
| – | 361 | 3300 | 1.41 | 4.71 | CC(C)CNc1cc(NC2CC2)c2c3c(onc13)-c1ccccc1C2=O | – | – | – | – | – | – |
| – | 376 | 2570 | 2.15 | 2.23 | CC(C)CNC(=O)c1cc(O)c2c(c1)C(=O)c1cccc(O)c1C2=O | – | – | – | – | – | – |
